22 compounds from ChEMBL document CHEMBL5050844 (2019) can be followed below.

For assay [1], the target named is E3 ubiquitin-protein ligase CBL-B (Homo sapiens, UniProt Q13191). Put plainly: Inhibition of N-terminal Avi-tagged human CBL-B (36 to 427 residues) incubated with 60 nM Src kinase for 1.5 hrs followed by incubation with fluorescently labeled UbcH5B-Ub for 1 hr and measured by TR-FRET assay. The class given is single protein.
Assay [2] is described as follows: Induction of anti-CD3/CD28 antibodies-stimulated human T cell activation at 1 uM assessed fold increase in IL-2 secretion measured by ELISA assay. The class given is functional, T cell line.
Assay [3] is described as follows: Induction of anti-CD3/CD28 antibodies-stimulated human T cell activation at 0.3 uM assessed fold increase in IL-2 secretion measured by ELISA assay. The class given is functional, T cell line.
Assay [4] in a line: Induction of anti-CD3 antibodies-stimulated human T cell activation at 1 uM assessed fold increase in IL-2 secretion measured by ELISA assay. Note: reference of the scale not given here. The class given is functional, T cell line.
Assay [5] can be described thus: Induction of anti-CD3/CD28 antibodies-stimulated human T cell activation at 1 uM assessed fold increase in CD25 expression measured by ELISA assay. Format: functional, T cell line.
Assay [6] is described as follows: Induction of anti-CD3/CD28 antibodies-stimulated human T cell activation at 0.3 uM assessed fold increase in CD25 expression measured by ELISA assay. The class given is functional, T cell line.
The nature of assay [7]: Induction of anti-CD3 antibodies-stimulated human T cell activation at 1 uM assessed fold increase in CD25 expression measured by ELISA assay. Note: reference of the scale not given here. The class given is functional, T cell line.

Chain of E3 ubiquitin-protein ligase CBL-B (Q13191 whole entry, the tested form may be a part): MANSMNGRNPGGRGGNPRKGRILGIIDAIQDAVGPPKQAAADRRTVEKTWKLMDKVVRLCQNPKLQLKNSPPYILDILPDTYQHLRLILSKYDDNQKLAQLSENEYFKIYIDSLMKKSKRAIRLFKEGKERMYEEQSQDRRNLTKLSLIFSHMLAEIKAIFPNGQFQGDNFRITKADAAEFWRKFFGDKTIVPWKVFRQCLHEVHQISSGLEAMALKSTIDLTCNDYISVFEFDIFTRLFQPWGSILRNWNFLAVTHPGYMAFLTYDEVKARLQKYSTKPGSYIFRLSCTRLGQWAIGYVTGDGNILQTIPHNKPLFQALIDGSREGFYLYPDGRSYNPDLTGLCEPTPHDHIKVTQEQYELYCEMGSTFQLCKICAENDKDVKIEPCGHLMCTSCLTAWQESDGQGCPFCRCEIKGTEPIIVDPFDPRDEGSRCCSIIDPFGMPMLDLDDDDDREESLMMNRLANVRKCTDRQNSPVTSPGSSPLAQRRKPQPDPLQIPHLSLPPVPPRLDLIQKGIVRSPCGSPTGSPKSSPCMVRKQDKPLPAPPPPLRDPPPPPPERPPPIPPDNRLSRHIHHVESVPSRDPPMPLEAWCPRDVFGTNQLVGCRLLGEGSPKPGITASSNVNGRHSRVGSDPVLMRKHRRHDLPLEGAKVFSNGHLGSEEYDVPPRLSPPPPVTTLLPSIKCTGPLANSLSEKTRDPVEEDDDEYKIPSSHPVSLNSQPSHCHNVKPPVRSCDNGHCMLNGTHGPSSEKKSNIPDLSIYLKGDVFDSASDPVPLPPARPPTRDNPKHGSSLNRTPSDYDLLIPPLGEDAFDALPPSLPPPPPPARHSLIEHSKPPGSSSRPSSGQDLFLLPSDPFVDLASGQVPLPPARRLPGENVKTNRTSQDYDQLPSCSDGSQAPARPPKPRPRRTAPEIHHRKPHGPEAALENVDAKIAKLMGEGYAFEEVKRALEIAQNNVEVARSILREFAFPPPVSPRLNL

Consider `Cc1c[nH]nc1-c1cc([C@H](C)Cc2nncn2C)cc(N2Cc3c(cccc3C(F)(F)F)C2=O)n1`, for which, in assay [1], the IC50 is at most 300 nM. For the same compound, the “fold change (FC)” value was 1.01 in assay [2]; 1.01 in assay [3]; 0.051 in assay [4]; 1.01 in assay [5]; 1.01 in assay [6]; “<=0.6” in assay [7].

Regarding `CC(c1cc2c(c(C3CC3)n1)CN(c1cccc(C3(Cc4nncn4C)COC3)c1)C2=O)N1CCCC1` (centres undefined), the IC50 in assay [1] was under 100 nM. Further, the “fold change (FC)” value in assay [2] is recorded as 2.51; in assay [3] it was 1.01; in assay [4], “<=0.05”; in assay [5], 1.01; in assay [6], 1.01; in assay [7] it was 0.601.

On to `CN1CC2CC1CN2c1cc2c(c(C(F)(F)F)c1)CN(c1cccc([C@@](C)(F)C(F)(F)c3nncn3C)c1)C2=O` (single isomer, unassigned; 562), for which the half-inhibitory concentration (IC50) in assay [1] is under 100 nM. The “fold change (FC)” value in assay [2] is reported as “>=7.5”; in assay [3] it was 5; in assay [4] it was “>=0.201”; in assay [5] it was 1.51; in assay [6] it was 1.51; in assay [7] it was “>=1.001”.

As to `Cc1conc1CC1(c2cccc(NC(=O)c3cc(CN4CC[C@H](O)C4)nc(C4CC4)n3)c2)COC1`, the IC50 in assay [1] is under 100 nM. Further, the “fold change (FC)” value in assay [2] is “>=7.5”; in assay [3], “>=7.5”; in assay [4], “>=0.201”; in assay [5] it was 1.31; in assay [6] it was 1.31; in assay [7], “>=1.001”.

Regarding `Cn1cnnc1CC1(c2cccc(N3Cc4c(cc(CN5CCCC6CC65)cc4C(F)(F)F)C3=O)c2)COC1` (centres undefined), the IC50 in assay [1] was under 100 nM. The “fold change (FC)” value is “>=7.5” in assay [2]; “>=7.5” in assay [3]; “>=0.201” in assay [4]; 1.01 in assay [5]; 1.01 in assay [6]; “>=1.001” in assay [7].

As for `COc1ccc2c(c1)CN(Cc1cc3c(c(C(F)(F)F)c1)CN(c1cccc(C4(Cc5nncn5C)COC4)c1)C3=O)C2`, the IC50 in assay [1] was under 100 nM. Also, the “fold change (FC)” value was “>=7.5” in assay [2]; “>=7.5” in assay [3]; “>=0.201” in assay [4]; 1.31 in assay [5]; 1.31 in assay [6]; “>=1.001” in assay [7].

Compound `Cn1cnnc1CC1(c2cccc(N3Cc4c(cc(N5CCOCC5)cc4C(F)(F)F)C3=O)c2)COC1` displayed an IC50 in assay [1] of under 100 nM. In addition, the “fold change (FC)” value in assay [2] is listed as “>=7.5”; in assay [3], 5; in assay [4], 0.101; in assay [5], 1.51; in assay [6], 1.31; in assay [7], “>=1.001”.

Consider `Cc1cc(C(=O)Nc2cccc(C3(C(F)(F)c4nncn4C)COC3)c2)nc(C2CC2)n1`, for which, in assay [1], the IC50 was under 100 nM. Also, the “fold change (FC)” value in assay [2] is listed as 5; in assay [3], 2.51; in assay [4], 0.101; in assay [5], 1.31; in assay [6] it was 1.01; in assay [7], 0.801.

For the compound `Cn1cnnc1CC1(c2cccc(N3Cc4c(cc(CN5CCC(C(F)F)CC5)cc4C(F)(F)F)C3=O)c2)COC1`, the IC50 in assay [1] was under 100 nM. Moreover, the “fold change (FC)” value in assay [2] was “>=7.5”; in assay [3], 5; in assay [4], 0.151; in assay [5] it was 1.31; in assay [6] it was 1.31; in assay [7], “>=1.001”.

In assay [1], `Cn1cnnc1CC1(c2cccc(N3Cc4c(cc(CN5CCC6CC6C5)cc4C(F)(F)F)C3=O)c2)COC1` (centres undefined) had an IC50 of under 100 nM. In addition, the “fold change (FC)” value in assay [2] is “>=7.5”; in assay [3], “>=7.5”; in assay [4], “>=0.201”; in assay [5] it was 1.31; in assay [6] it was 1.31; in assay [7] it was “>=1.001”.

Take `CCOc1cc(N2Cc3c(cc([C@H](C)N4CC[C@H](F)C4)cc3C(F)(F)F)C2=O)cc(C2(Cc3nncn3C)COC2)c1`: in assay [1], the half-maximal inhibitory concentration (IC50) was under 100 nM. Further, the “fold change (FC)” value in assay [2] is reported as “>=7.5”; in assay [3], 2.51; in assay [4] it was 0.151; in assay [5], 1.51; in assay [6], 1.31; in assay [7], “>=1.001”.

In the case of `CN1C[C@@H]2C[C@H]1CN2c1cc2c(c(C(F)(F)F)c1)CN(c1cccc(C3(Cc4nncn4C)COC3)c1)C2=O` (single isomer, unassigned), in assay [1], the IC50 was under 100 nM. The “fold change (FC)” value in assay [2] was “>=7.5”; in assay [3], “>=7.5”; in assay [4] it was “>=0.201”; in assay [5], 1.31; in assay [6], 1.31; in assay [7], “>=1.001”.

Consider `CN1CCN(c2cc3c(c(C(F)(F)F)c2)CN(c2cccc(C4(Cc5nncn5C)COC4)c2)C3=O)C(=O)C1`, for which the IC50 in assay [1] is under 100 nM. For the same compound, the “fold change (FC)” value worked out at 1.01 in assay [2]; 1.01 in assay [3]; 0.051 in assay [4]; 1.01 in assay [5]; 1.01 in assay [6]; 0.801 in assay [7].

In turn, `Cn1cnnc1CC1(c2cccc(NC(=O)c3csc(C(F)(F)F)n3)c2)COC1` showed an IC50 in assay [1] of under 100 nM. Also, the “fold change (FC)” value was determined as 1.01 in assay [2]; 1.01 in assay [3]; 0.051 in assay [4]; 1.01 in assay [5]; 1.01 in assay [6]; 0.601 in assay [7].

Consider `CN1CCN(c2cc3c(c(C(F)(F)F)c2)CN(c2cccc(C4(Cc5nncn5C)COC4)c2)C3=O)CC12CC2`, for which the IC50 in assay [1] was under 100 nM. For the same compound, the “fold change (FC)” value in assay [2] is given as 5; in assay [3], 2.51; in assay [4], 0.151; in assay [5] it was 1.51; in assay [6], 1.31; in assay [7], “>=1.001”.

In turn, `Cn1cnnc1[C@@H](F)C1(c2cccc(N3Cc4c(cc(CN5CCCC5)cc4C(F)(F)F)C3=O)c2)COC1` showed an IC50 in assay [1] of under 100 nM. Moreover, the “fold change (FC)” value in assay [2] was “>=7.5”; in assay [3], 5; in assay [4], “>=0.201”; in assay [5], “>=1.76”; in assay [6] it was “>=1.76”; in assay [7], “>=1.001”.

In assay [1], `Cn1cnnc1CC1(c2cccc(N3Cc4c(cc(OC5CC5)cc4C(F)(F)F)C3=O)c2)COC1` displayed an IC50 of under 100 nM. Further, the “fold change (FC)” value was 2.51 in assay [2]; 1.01 in assay [3]; 0.151 in assay [4]; 1.01 in assay [5]; 1.01 in assay [6]; “>=1.001” in assay [7].

In assay [1], `Cn1cnnc1CC1(c2cccc(N3Cc4c(cc(CN5[C@@H]6CC[C@H]5C[C@H](F)C6)cc4C(F)(F)F)C3=O)c2)COC1` had an IC50 of under 100 nM. Besides, the “fold change (FC)” value is listed as “>=7.5” in assay [2]; 5 in assay [3]; “>=0.201” in assay [4]; “>=1.76” in assay [5]; “>=1.76” in assay [6]; “>=1.001” in assay [7].

In assay [1], `Cn1cnnc1CC1(c2cccc(N3Cc4c(cc(CN5CCC6(CC5)CC6)cc4C(F)(F)F)C3=O)c2)COC1` gave an IC50 of under 100 nM. Moreover, the “fold change (FC)” value in assay [2] is listed as “>=7.5”; in assay [3] it was “>=7.5”; in assay [4] it was “>=0.201”; in assay [5], 1.51; in assay [6], 1.51; in assay [7], “>=1.001”.

With `Cn1cnnc1CC1(c2cccc(NC(=O)c3cc(CN4C[C@@H]5[C@H](C4)C5(F)F)cc(C4CC4)n3)c2)COC1`, the IC50 in assay [1] is under 100 nM. Also, the “fold change (FC)” value in assay [2] is reported as “>=7.5”; in assay [3], “>=7.5”; in assay [4] it was “>=0.201”; in assay [5] it was 1.31; in assay [6] it was 1.31; in assay [7], “>=1.001”.

With `Cn1cnnc1CC1(c2cccc(N3Cc4c(cc(N5CC6(CCC6(F)F)C5)cc4C(F)(F)F)C3=O)c2)COC1`, the IC50 in assay [1] was under 100 nM. Also, the “fold change (FC)” value was 2.51 in assay [2]; 1.01 in assay [3]; “<=0.05” in assay [4]; 1.01 in assay [5]; 1.01 in assay [6]; 0.601 in assay [7].

Regarding `Cn1cnnc1CC1(c2cccc(N3Cc4c(cc(C5CCOC5)cc4C(F)(F)F)C3=O)c2)COC1` (centres undefined), in assay [1], the IC50 is under 100 nM. Besides, the “fold change (FC)” value is recorded as 5 in assay [2]; 2.51 in assay [3]; 0.101 in assay [4]; 1.01 in assay [5]; 1.01 in assay [6]; 0.801 in assay [7].
